One test relates to Subjects. Nature of the test: ESA panel evaluation of compressed mints (cooling strength, flavor strength, bitterness/off-taste). The format is in vivo, human. Conditions: for upfront cooling intensity: first 3 minutes, 9-point scale, WS-5 500 ppm. The procedure: All samples were prepared in a pilot plant under good manufacture practice conditions. Samples made for consumer descriptive analysis passed a metal detector test. One sample of each mint formulation was further evaluated in both Expert Sensory Analysis (ESA) and Descriptive Analysis tests.
Compressed mint samples were evaluated for cooling strength, flavor strength and bitterness, or off-taste in a randomized sampling order by a 9-point scale: 0 being the lowest and 9 being the highest. Subjects were allowed to suck the compressed mint (without biting or chewing) until completely dissolved. The coolant attributes were measured at different time points up to 15 minutes.
The level of WS-12 was increased to levels from 250 to 1000 ppm (0.025%-0.1% w/w) and additional ESA evaluations were conducted.

Another test deals with descriptive panel (N=8). Nature of the test: Consumer-Descriptive Analysis panel study of compressed mints. It is filed as in vivo, human. The procedure:
All samples were prepared in a pilot plant under good manufacture practice conditions. Samples made for consumer descriptive analysis passed a metal detector test. One sample of each mint formulation was further evaluated in both Expert Sensory Analysis (ESA) and Descriptive Analysis tests. A Consumer-Descriptive Analysis panel study was conducted. Four mints containing various level of cooling blend were formulated at a pilot plant. During the test, each member of the descriptive panel (N=8) sucked one piece of mint until it completely dissolved. During the mint consumption, panelists evaluated various cooling attributes including oral cool and nasal cool at several specified time points. Flavor and sweetener intensity, bitterness, and off-taste were also evaluated. Panelists continued the evaluation even after mint consumption was complete, for a total of 20 minutes from the beginning of the test.

Setting [1] is: compressed mint, WS-12 1000 ppm, WS-5 and WS-12 250 ppm of each.

Molecules are shown by their SMILES. Some results are limits rather than exact numbers.

With `CCOC(=O)CNC(=O)C1CC(C)CCC1C(C)C` (stereo not drawn) [WS-5, N-(Ethoxycarbonylmethyl)-3-p-menthanecarboxamide], the upfront cooling intensity entry in the test with Subjects (setting [1]) was “strong cooling intensity upfront”. In the test on descriptive panel (N=8) (compressed mint, WS-5), the “oral cooling sustained after consumption” value is recorded as “up to 10 minutes”. Also, the oral cooling result in the test on descriptive panel (N=8) (during the 15 minutes, vs control, WS-5 500 ppm, WS-5/WS-12 250/250 ppm) was “higher oral cooling”.

As for `COc1ccc(NC(=O)[C@@H]2C[C@H](C)CC[C@H]2C(C)C)cc1` [WS-12, (1R,2S,5R)-N-(4-Methoxyphenyl)-5-methyl-2-(1-methylethyl)cyclohexanecarboxamide], in the test on Subjects (compressed mint, WS-12 1000 ppm, measured up to 15 minutes), the cooling duration was over 15 min. For the same molecule, the upfront cooling intensity entry in the test with Subjects (setting [1]) is given as “very low upfront cooling”. Further, the “cooling after 6 min” value in the test on Subjects (compressed mint, compared to mint comprising WS-23 (1000 ppm), WS-12 1000 ppm, WS-5 and WS-12 250 ppm of each) was “significant more cooling”. For the same molecule, in the test with Subjects (compressed mints, low level of WS-12 (25-100 ppm)), the “cooling intensity, flavor intensity or duration of cooling versus the control mints” value is on record as “No significant difference”.

On to `CNC(=O)C(C)(C(C)C)C(C)C` [WS-23, N,2,3-Trimethyl-2-isopropylbutamide, reference compound], for which the oral cooling entry in the test on descriptive panel (N=8) (after the first 4 minutes, WS-23 0.1%) is “lost cooling strength and became similar to the control”; in the test on descriptive panel (N=8) (first 4 minutes, WS-23 0.1%) it was “superior oral cooling”.

The values are drawn from patent publication US20180184680A1, “LONG-LASTING COOLING FORMULATIONS” (WM. WRIGLEY JR. COMPANY, priority 2015, published 2018).
